pIC50: −log10 of the molar value. Where a name gives a salt, the structure may show the parent alone.

In one test the target is TrkA kinase (Homo sapiens, UniProt P04629). As to the kind of experiment: TrkA kinase assay (mobility shift assay). Format: biochemical. Particulars: class symbols; read-out: Trk A Kinase IC50. The method, then: Example 201 TrkA Kinase Assay
TrkA kinase, sequence (P04629 33-796): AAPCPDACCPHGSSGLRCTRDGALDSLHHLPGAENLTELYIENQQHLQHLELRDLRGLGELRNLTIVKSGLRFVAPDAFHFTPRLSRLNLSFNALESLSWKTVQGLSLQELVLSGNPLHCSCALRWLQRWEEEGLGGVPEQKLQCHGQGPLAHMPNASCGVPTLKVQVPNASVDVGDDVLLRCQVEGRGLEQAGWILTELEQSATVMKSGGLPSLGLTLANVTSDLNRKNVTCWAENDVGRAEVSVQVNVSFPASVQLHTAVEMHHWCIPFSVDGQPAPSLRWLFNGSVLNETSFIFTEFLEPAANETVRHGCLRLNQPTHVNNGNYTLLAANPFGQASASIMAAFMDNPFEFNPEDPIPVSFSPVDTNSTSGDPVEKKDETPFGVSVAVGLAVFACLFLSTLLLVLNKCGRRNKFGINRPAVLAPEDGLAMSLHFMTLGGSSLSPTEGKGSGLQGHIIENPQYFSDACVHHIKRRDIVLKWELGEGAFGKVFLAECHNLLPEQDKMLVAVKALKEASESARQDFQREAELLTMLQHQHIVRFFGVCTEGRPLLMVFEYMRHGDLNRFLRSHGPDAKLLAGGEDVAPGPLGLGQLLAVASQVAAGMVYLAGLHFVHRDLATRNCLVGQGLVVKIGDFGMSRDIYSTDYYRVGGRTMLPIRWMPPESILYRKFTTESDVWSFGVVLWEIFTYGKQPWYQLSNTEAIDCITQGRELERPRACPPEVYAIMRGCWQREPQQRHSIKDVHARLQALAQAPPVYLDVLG
Mobility shift assay was used to determine the inhibitory activity of compounds against TrkA kinase. Assay procedures are as follows:
1× Kinase base buffer (50 mM HEPES, pH 7.5; 0.0015% Brij-35)
Stop buffer (100 mM HEPES, pH 7.5; 0.015% Brij-35; 0.2% Coating Reagent #3; 50 mM EDTA)
1) Dilute the compound to 50× of the final desired highest inhibitor concentration in reaction by 100% DMSO. Transfer 100 μl of this compound dilution to a well in a 96-well plate.
2) For all compounds, transfer the compound in tubes to one well on 96-well storage plate and serially dilute the compound by transferring 30 μl to 60 μl of 100% DMSO in the next well and so forth for a total of 10 concentrations.
3) Add 100 μl of 100% DMSO to two empty wells for no compound control and no enzyme control in the same 96-well plate. Mark the plate as source plate.
4) Prepare intermediate plate
Transfer 10 μl of compound from source plate to a new 96-well plate as the intermediate plate
Add 90 µl of 1× kinase buffer to each well of the intermediate plate.
Mix the compounds in intermediate plate for 10 min on shaker.
1) Transfer 5 μl of each well from the 96-well intermediate plate to a 384-well plate in duplicates. For example, A1 of the 96-well plate is transferred to A1 and A2 of the 384-well plate. A2 of the 96-well plate is transferred to A3 and A4 of the 384-well plate, and so on.
1) Prepare 2.5× enzyme solution
Add kinase in 1× kinase base buffer.
2) Prepare 2.5× peptide solution Add FAM-labeled peptide and ATP in the 1× kinase base buffer.
3) Assay plate already contains 5 μl of compound in 10% DMSO.
4) Transfer 2.5× enzyme solution to the assay plate
Add 10 μl of 2.5× enzyme solution to each well of the 384-well assay plate.
5) Incubate at room temperature for 10 min.
6) Transfer 2.5× peptide solution to the assay plate
Add 10 μl of 2.5× peptide solution to each well of the 384-well assay plate.
Kinase reaction conditions are shown as Table 11:
7) Kinase reaction and stop
Incubate at 28° C. for specified period of time.
Add 25 μl of stop buffer to stop reaction.
1) Copy conversion data from Caliper program.
2) Convert conversion values to inhibition values.
Percent inhibition=(max-conversion)/(max-min)*100.
“max” stands for DMSO control; “min” stands for low control.
3) Fit the data in XLFit excel add-in version 5.4.0.8 to obtain IC50 values.
Equation used is: Y=Bottom+(Top-Bottom)/(1+(IC50/X)^HillSlope)
Usually pIC50 stands for −log10 of the IC50, conventionally taken in molar units. Regarding `C#CC(O)c1nnc(-c2cnn3ccc(N4CCC[C@@H]4c4cc(F)ccc4F)nc23)[nH]1` (stereo partly drawn) [Compound 48, 1-(5-(5-((R)-2-(2,5-difluorophenyl)pyrrolidin-1-yl)pyrazolo[1,5-a]pyrimidin-3-yl)-4H-1,2,4-triazol-3-yl)prop-2-yn-1-ol], the pIC50 is at least 8.00.

With `CC(C)[C@H](N)C(=O)N[C@H](C(=O)O[C@@H](C)c1nnc(-c2cnn3ccc(N4CCC[C@@H]4c4cc(F)ccc4F)nc23)[nH]1)C(C)C` [Compound 55, (S)-1-(5-(5-((R)-2-(2,5-difluorophenyl)pyrrolidin-1-yl)pyrazolo[1,5-a]pyrimidin-3-yl)-4H-1,2,4-triazol-3-yl)ethyl L-valylvalinate hydrochloride], the pIC50 is 7.30 to 8.00.

Regarding `Fc1ccc(F)c([C@H]2CCCN2c2ccn3ncc(-c4nnc(-c5ccc(Oc6ccccc6)cc5)[nH]4)c3n2)c1` [Compound 58, (R)-5-(2-(2,5-difluorophenyl)pyrrolidin-1-yl)-3-(5-(4-phenoxyphenyl)-4H-1,2,4-triazol-3-yl)pyrazolo[1,5-a]pyrimidine], the negative logarithm of the IC50 (pIC50) was under 7.30.

Consider `Fc1ccc(F)c([C@H]2CCCN2c2ccn3ncc(-c4nnc(-c5ccc6cn[nH]c6c5)[nH]4)c3n2)c1` [Compound 59, (R)-3-(5-(1H-indazol-6-yl)-4H-1,2,4-triazol-3-yl)-5-(2-(2,5-difluorophenyl)pyrrolidin-1-yl)pyrazolo[1,5-a]pyrimidine], for which the pIC50 is at least 8.00.

Turning to `O[C@@H]1C[C@](O)(c2nnc(-c3cnn4ccc(N5CCC[C@@H]5c5cc(F)ccc5F)nc34)[nH]2)C[C@@H](O)[C@H]1O` [Compound 60, (1R,2S,3R,5S)-5-(5-(5-((R)-2-(2,5-difluorophenyl)pyrrolidin-1-yl)pyrazolo[1,5-a]pyrimidin-3-yl)-4H-1,2,4-triazol-3-yl)cyclohexane-1,2,3,5-tetraol], the pIC50 is 7.30 to 8.00.

On to `Fc1ccc(F)c([C@H]2CCCN2c2ccn3ncc(-c4nnc(-c5ccc6c(c5)OCC6)[nH]4)c3n2)c1` [Compound 61, (R)-5-(2-(2,5-difluorophenyl)pyrrolidin-1-yl)-3-(5-(2,3-dihydrobenzofuran-6-yl)-4H-1,2,4-triazol-3-yl)pyrazolo[1,5-a]pyrimidine], for which the negative logarithm of the IC50 (pIC50) is at least 8.00.

In the case of `Fc1ccc(F)c([C@H]2CCCN2c2ccn3ncc(-c4nc5ccc(N6CCN7CCC[C@@H]7C6)cc5[nH]4)c3n2)c1` [Compound 62, 5-((R)-2-(2,5-difluorophenyl)pyrrolidin-1-yl)-3-(6-((R)-hexahydropyrrolo[1,2-a]pyrazin-2(1H)-yl)-1H-benzo[d]imidazol-2-yl)pyrazolo[1,5-a]pyrimidine], the negative-log IC50 (pIC50) was under 7.30.

As to `Fc1ccc(F)c([C@H]2CCCN2c2ccn3ncc(-c4nc5ccc(N6CCN7CCC[C@@H]7C6)cc5s4)c3n2)c1` [Compound 63, 2-(5-((R)-2-(2,5-difluorophenyl)pyrrolidin-1-yl)pyrazolo[1,5-a]pyrimidin-3-yl)-6-((R)-hexahydropyrrolo[1,2-a]pyrazin-2(1H)-yl)benzo[d]thiazole], the pIC50 was under 7.30.

In the case of `Fc1ccc(F)c([C@H]2CCCN2c2ccn3ncc(-c4nc5cnc(N6CCOCC6)cc5[nH]4)c3n2)c1` [Compound 64, (R)-4-(2-(5-(2-(2,5-difluorophenyl)pyrrolidin-1-yl)pyrazolo[1,5-a]pyrimidin-3-yl)-1H-imidazo[4,5-c]pyridin-6-yl)morpholine], the negative-log IC50 (pIC50) was under 7.30.

As for `COc1cc2nc(-c3cnn4ccc(N5CCC[C@@H]5c5cc(F)ccc5F)nc34)[nH]c2cc1C(C)O` (stereo partly drawn) [Compound 66, 1-(2-(5-((R)-2-(2,5-difluorophenyl)pyrrolidin-1-yl)pyrazolo[1,5-a]pyrimidin-3-yl)-5-methoxy-1H-benzo[d]imidazol-6-yl)ethan-1-ol], the negative logarithm of the IC50 (pIC50) was at least 8.00.

With `CC(O)c1ccc2nc(-c3cnn4ccc(N5CCC[C@@H]5c5cc(F)ccc5F)nc34)oc2c1` (stereo partly drawn) [Compound 68, 1-(2-(5-((R)-2-(2,5-difluorophenyl)pyrrolidin-1-yl)pyrazolo[1,5-a]pyrimidin-3-yl)benzo[d]oxazol-6-yl)ethan-1-ol], the negative-log IC50 (pIC50) was at least 8.00.

Turning to `OCc1ccc2nc(-c3cnn4ccc(N5CCC[C@@H]5c5cc(F)ccc5F)nc34)oc2c1` [Compound 69, (R)-(2-(5-(2-(2,5-difluorophenyl)pyrrolidin-1-yl)pyrazolo[1,5-a]pyrimidin-3-yl)benzo[d]oxazol-6-yl)methanol], the pIC50 is at least 8.00.

The same test, now with this note: numeric values; read-out: Trk A Kinase IC50.
On to `CCC(O)C(F)(F)c1nnc(-c2cnn3ccc(N4CCC[C@@H]4c4cc(F)ccc4F)nc23)[nH]1` (stereo partly drawn) [Compound 46, 1-(5-(5-((R)-2-(2,5-difluorophenyl)pyrrolidin-1-yl)pyrazolo[1,5-a]pyrimidin-3-yl)-4H-1,2,4-triazol-3-yl)-1,1-difluorobutan-2-ol], for which the pIC50 is 8.69.

Turning to `Fc1ccc(F)c([C@H]2CCCN2c2ccn3ncc(-c4nnc(C5COCCN5)[nH]4)c3n2)c1` (stereo partly drawn) [Compound 49, 3-(5-(5-((R)-2-(2,5-difluorophenyl)pyrrolidin-1-yl)pyrazolo[1,5-a]pyrimidin-3-yl)-4H-1,2,4-triazol-3-yl)morpholine], the negative logarithm of the IC50 (pIC50) was 8.19.

As for `Fc1ccc(F)c([C@H]2CCCN2c2ccn3ncc(-c4nnc(-c5ccc6[nH]ccc6c5)[nH]4)c3n2)c1` [Compound 50, (R)-3-(5-(1H-indol-5-yl)-4H-1,2,4-triazol-3-yl)-5-(2-(2,5-difluorophenyl)pyrrolidin-1-yl)pyrazolo[1,5-a]pyrimidine], the pIC50 was 8.58.

In the case of `CC(C)C[C@H](N)C(=O)O[C@@H](C)c1nnc(-c2cnn3ccc(N4CCC[C@@H]4c4cc(F)ccc4F)nc23)[nH]1` [Compound 51, (S)-1-(5-(5-((R)-2-(2,5-difluorophenyl)pyrrolidin-1-yl)pyrazolo[1,5-a]pyrimidin-3-yl)-4H-1,2,4-triazol-3-yl)ethyl L-leucinate hydrochloride], the negative logarithm of the IC50 (pIC50) was 8.52.

For the compound `OCC(F)c1nnc(-c2cnn3ccc(N4CCC[C@@H]4c4cc(F)ccc4F)nc23)[nH]1` (stereo partly drawn) [Compound 52, 2-(5-(5-((R)-2-(2,5-difluorophenyl)pyrrolidin-1-yl)pyrazolo[1,5-a]pyrimidin-3-yl)-4H-1,2,4-triazol-3-yl)-2-fluoroethan-1-ol], the pIC50 was 8.78.

As for `OC1(c2nnc(-c3cnn4ccc(N5CCC[C@@H]5c5cc(F)ccc5F)nc34)[nH]2)CC1` [Compound 53, (R)-1-(5-(5-(2-(2,5-difluorophenyl)pyrrolidin-1-yl)pyrazolo[1,5-a]pyrimidin-3-yl)-4H-1,2,4-triazol-3-yl)cyclopropan-1-ol], the negative-log IC50 (pIC50) is 8.85.

Turning to `CN1CCN(c2ccc(-c3nnc(-c4cnn5ccc(N6CCC[C@@H]6c6cc(F)ccc6F)nc45)[nH]3)cn2)CC1` [Compound 54, (R)-5-(2-(2,5-difluorophenyl)pyrrolidin-1-yl)-3-(5-(6-(4-methylpiperazin-1-yl)pyridin-3-yl)-4H-1,2,4-triazol-3-yl)pyrazolo[1,5-a]pyrimidine], the negative-log IC50 (pIC50) was 8.93.

With `Fc1ccc(F)c([C@H]2CCCN2c2ccn3ncc(-c4nnc(-c5ccc6ncccc6c5)[nH]4)c3n2)c1` [Compound 56, (R)-6-(5-(5-(2-(2,5-difluorophenyl)pyrrolidin-1-yl)pyrazolo[1,5-a]pyrimidin-3-yl)-4H-1,2,4-triazol-3-yl)quinoline], the negative logarithm of the IC50 (pIC50) is 8.92.

`Fc1ccc(F)c([C@H]2CCCN2c2ccn3ncc(-c4nnc(-c5ccc6nc[nH]c6c5)[nH]4)c3n2)c1` [Compound 57, (R)-3-(5-(1H-benzo[d]imidazol-6-yl)-4H-1,2,4-triazol-3-yl)-5-(2-(2,5-difluorophenyl)pyrrolidin-1-yl)pyrazolo[1,5-a]pyrimidine]: the negative logarithm of the IC50 (pIC50) was 9.22.

In the case of `COc1cc2nc(-c3cnn4ccc(N5CCC[C@@H]5c5cc(F)ccc5F)nc34)[nH]c2cc1CO` [Compound 67, (R)-(2-(5-(2-(2,5-difluorophenyl)pyrrolidin-1-yl)pyrazolo[1,5-a]pyrimidin-3-yl)-5-methoxy-1H-benzo[d]imidazol-6-yl)methanol], the negative-log IC50 (pIC50) was 9.49.

Take `CC(O)c1cc2nc(-c3cnn4ccc(N5CCC[C@@H]5c5cc(F)ccc5F)nc34)[nH]c2cn1` (stereo partly drawn) [Compound 70, 1-(2-(5-((R)-2-(2,5-difluorophenyl)pyrrolidin-1-yl)pyrazolo[1,5-a]pyrimidin-3-yl)-3H-imidazo[4,5-c]pyridin-6-yl)ethan-1-ol]: the negative logarithm of the IC50 (pIC50) is 9.30.

Source of the values: US20210395256A1, “TYROSINE KINASE INHIBITORS, COMPOSITIONS AND METHODS THERE OF” (Betta Pharmaceuticals Co., Ltd., priority 2018, published 2021).
